According to US20260285867A1, “IMIDAZOTRIAZINE DERIVATIVES AS IL-17 MODULATORS” (UCB BIOPHARMA SRL, priority 2023, published 2026):

Target: T1, IL-17A (Homo sapiens, UniProt Q16552)
T1 sequence (Q16552 24-155): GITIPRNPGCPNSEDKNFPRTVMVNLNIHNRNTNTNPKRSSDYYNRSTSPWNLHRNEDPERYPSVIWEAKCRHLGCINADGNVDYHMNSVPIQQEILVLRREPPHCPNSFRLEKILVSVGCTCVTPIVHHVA
Experiment: Inhibition of IL-17A induced IL-6 release from dermal fibroblast cell line (HDF cell line assay)
Type: cell-based
Settings: HDF cells stimulated with IL-17A 50 pM + TNFα 25 pM, IL-6 release by HTRF
Text: Inhibition of IL-17A Induced IL-6 Release from Dermal Fibroblast Cell Line The purpose of this assay is to test the neutralising ability to IL-17 proteins, in a human primary cell system. Stimulation of normal human dermal fibroblasts (HDF) with IL-17 alone produces only a very weak signal but in combination with certain other cytokines, such as TNFα, a synergistic effect can be seen in the production of inflammatory cytokines, i.e. IL-6. HDFs were stimulated with IL-17A (50 pM) in combination with TNF-α (25 pM). The resultant IL-6 response was then measured using a homogenous time-resolved FRET kit from Cisbio. The kit utilises two monoclonal antibodies, one labelled with Eu-Cryptate (Donor) and the second with d2 or XL665 (Acceptor). The intensity of the signal is proportional to the concentration of IL-6 present in the sample (Ratio is calculated by 665/620×104). The ability of a compound to inhibit IL-17 induced IL-6 release from human dermal fibroblasts is measured in this assay. […] The cells were re-suspended in complete media (5 mL) counted and adjusted to a concentration of 3.125×10^4 cells/mL before being added to the 384 well assay plate (Corning #3701) at 40 μL per well. […] The mixture was incubated at room temperature for 3 h with gentle shaking (<400 rpm) before being read on a Synergy Neo 2 plate reader (Excitation: 330 nm; Emission: […]).

pIC50 (listed as 1 (Peak 1))	pIC50 (listed as 2 (Peak 2))	SMILES
7.7	–	Cc1nonc1C(=O)N[C@H](c1cn2ncc(C3(C(=O)NCC(C)(F)F)CC(C)(O)C3)nc2n1)C1CCC(F)(F)CC1 (single isomer, unassigned) [Example 1]
–	8.4	Cc1nonc1C(=O)N[C@H](c1cn2ncc(C3(C(=O)NCC(C)(F)F)CC(C)(O)C3)nc2n1)C1CCC(F)(F)CC1 (single isomer, unassigned) [Example 2]
